Results taken from ChEMBL document CHEMBL2424515, “Identification of novel substrates and structure-activity relationship of cellular uptake mediated by human organic cation transporters 1 and 2” (J Med Chem, 2013).

Assays:
[1] = target: T1, Solute carrier family 22 member 2 (Homo sapiens, UniProt O15244); experiment: Cellular uptake in human HEK293 cells assessed as human OCT2-mediated drug transport at 2.5 uM after 4 mins by LC-MS/MS analysis; assay type: ADME, cell-based; conditions: hek293, 4 min
T1 sequence (O15244 whole entry): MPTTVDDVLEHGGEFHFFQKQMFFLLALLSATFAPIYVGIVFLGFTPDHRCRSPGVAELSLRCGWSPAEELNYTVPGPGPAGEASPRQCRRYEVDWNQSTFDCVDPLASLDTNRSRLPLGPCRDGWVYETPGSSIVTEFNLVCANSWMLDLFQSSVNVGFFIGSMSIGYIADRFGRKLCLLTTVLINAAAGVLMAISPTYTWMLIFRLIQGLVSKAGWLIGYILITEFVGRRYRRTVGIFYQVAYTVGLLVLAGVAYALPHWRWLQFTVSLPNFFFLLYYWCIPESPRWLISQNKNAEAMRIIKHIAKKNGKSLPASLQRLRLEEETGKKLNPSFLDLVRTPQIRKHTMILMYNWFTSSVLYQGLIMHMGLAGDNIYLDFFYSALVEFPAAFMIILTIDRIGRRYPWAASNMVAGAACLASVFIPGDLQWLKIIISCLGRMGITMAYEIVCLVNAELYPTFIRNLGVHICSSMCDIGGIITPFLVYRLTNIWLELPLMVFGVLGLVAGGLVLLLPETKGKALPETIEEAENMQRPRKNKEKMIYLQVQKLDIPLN

OCT2 (SLC22A2) = target: T2, OCT2 (SLC22A2) (Homo sapiens, UniProt O15244); experiment: Cellular uptake in human HEK293 cells assessed as human OCT2-mediated drug transport at 2.5 uM after 4 mins by LC-MS/MS analysis relative to passive uptake; assay type: ADME, cell-based; conditions: HEK293 cells expressing human OCT2, read-out: FC
T2 sequence (O15244 whole entry): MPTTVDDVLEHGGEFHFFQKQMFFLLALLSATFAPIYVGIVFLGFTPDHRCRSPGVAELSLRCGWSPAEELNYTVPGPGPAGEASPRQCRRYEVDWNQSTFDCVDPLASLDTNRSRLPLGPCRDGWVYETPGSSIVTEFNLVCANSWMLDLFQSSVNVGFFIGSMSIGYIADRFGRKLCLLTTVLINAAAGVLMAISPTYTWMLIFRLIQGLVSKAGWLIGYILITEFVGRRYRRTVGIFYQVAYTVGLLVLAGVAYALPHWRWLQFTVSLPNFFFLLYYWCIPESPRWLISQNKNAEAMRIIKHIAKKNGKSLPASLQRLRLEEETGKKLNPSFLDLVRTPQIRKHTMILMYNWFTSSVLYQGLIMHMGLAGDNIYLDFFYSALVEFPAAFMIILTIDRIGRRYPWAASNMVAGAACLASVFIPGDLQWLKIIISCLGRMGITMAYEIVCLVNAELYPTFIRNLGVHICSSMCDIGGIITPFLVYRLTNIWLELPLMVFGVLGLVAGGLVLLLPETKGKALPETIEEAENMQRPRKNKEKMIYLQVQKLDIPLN

[2] = target: T3, Solute carrier family 22 member 1 (Homo sapiens, UniProt O15245); experiment: Cellular uptake in human HEK293 cells assessed as human OCT1-mediated drug transport at 2.5 uM after 4 mins by LC-MS/MS analysis; assay type: ADME, cell-based; conditions: hek293, 4 min
T3 sequence (O15245 whole entry): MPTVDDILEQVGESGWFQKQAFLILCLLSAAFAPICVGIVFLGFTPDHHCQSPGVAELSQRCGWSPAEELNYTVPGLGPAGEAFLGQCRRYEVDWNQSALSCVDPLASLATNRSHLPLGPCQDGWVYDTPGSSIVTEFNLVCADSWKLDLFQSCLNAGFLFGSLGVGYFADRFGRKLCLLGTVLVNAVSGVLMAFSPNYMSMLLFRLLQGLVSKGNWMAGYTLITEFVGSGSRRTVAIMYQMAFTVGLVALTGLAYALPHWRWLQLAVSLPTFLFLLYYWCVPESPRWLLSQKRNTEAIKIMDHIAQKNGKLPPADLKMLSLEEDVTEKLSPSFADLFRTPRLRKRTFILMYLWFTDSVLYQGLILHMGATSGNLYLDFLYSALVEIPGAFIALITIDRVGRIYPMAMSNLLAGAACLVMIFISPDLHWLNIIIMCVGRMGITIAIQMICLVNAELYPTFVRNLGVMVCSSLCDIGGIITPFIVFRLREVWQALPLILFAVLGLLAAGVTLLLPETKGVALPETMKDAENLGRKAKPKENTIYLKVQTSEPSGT

OCT1 (SLC22A1) = target: T4, OCT1 (SLC22A1) (Homo sapiens, UniProt O15245); experiment: Cellular uptake in human HEK293 cells assessed as human OCT1-mediated drug transport at 2.5 uM after 4 mins by LC-MS/MS analysis relative to passive uptake; assay type: ADME, cell-based; conditions: HEK293 cells expressing human OCT1, read-out: FC
T4 sequence (O15245 whole entry): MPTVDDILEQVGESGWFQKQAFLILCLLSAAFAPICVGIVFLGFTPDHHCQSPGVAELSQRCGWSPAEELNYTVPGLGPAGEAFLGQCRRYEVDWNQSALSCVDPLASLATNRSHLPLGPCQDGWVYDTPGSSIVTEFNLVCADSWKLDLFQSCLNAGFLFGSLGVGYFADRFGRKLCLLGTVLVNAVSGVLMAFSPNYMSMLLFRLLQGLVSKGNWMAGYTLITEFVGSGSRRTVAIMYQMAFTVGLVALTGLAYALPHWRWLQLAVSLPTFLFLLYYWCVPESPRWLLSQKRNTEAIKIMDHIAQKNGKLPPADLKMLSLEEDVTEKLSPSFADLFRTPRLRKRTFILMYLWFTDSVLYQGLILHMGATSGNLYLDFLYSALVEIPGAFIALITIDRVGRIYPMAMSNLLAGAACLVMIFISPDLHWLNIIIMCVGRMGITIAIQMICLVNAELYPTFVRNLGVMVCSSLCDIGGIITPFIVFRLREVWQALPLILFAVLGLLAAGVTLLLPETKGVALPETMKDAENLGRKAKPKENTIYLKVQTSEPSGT

[3] = substrate: CN/C(=N/CCSCc1nc[nH]c1C)NC#N; experiment: cells, lysate or membranes named
[4] = substrate: CC[N+](CC)(CC)CC; experiment: cells, lysate or membranes named

Molecule	Drug uptake [1] [pmol/mg]	uptake ratio at 4 min, 2.5 µM (OCT2 (SLC22A2))	Drug uptake [2] [pmol/mg]	uptake ratio at 4 min, 2.5 µM (OCT1 (SLC22A1))	Km [3] [µM]	Km [4] [µM]
CNS(=O)(=O)Cc1ccc2[nH]cc(CCN(C)C)c2c1	94	3.3	620	15	–	–
NCCOc1ccccc1-c1nc(C(N)=O)c(NC(N)=O)s1	40	1.3	796	13	–	–
NCCCOc1ccccc1-c1nc(C(N)=O)c(NC(N)=O)s1	23	1.5	739	14	–	–
NC(=O)Nc1sc(-c2ccccc2O[C@H]2CCNC2)cc1C(N)=O	37	1.9	1047	26	–	–
NC(=O)Nc1sc(-c2ccccc2O[C@@H]2CCNC2)cc1C(N)=O	6.6	1.1	586	15	–	–
NC(=O)Nc1sc(-c2ccccc2OC2CCNCC2)cc1C(N)=O	35	1.8	821	17	–	–
NC(=O)Nc1sc(-c2ccccc2OC2CNC2)cc1C(N)=O	63	2.2	641	11	–	–
NC(=O)Nc1sc(-c2cccc(OC3CCNC3)c2)cc1C(N)=O (racemic)	21	1.6	1352	68	–	–
C[N+]1(C)CCC(Oc2ccccc2-c2cc(C(N)=O)c(NC(N)=O)s2)C1 (racemic)	46	4.3	903	53	–	–
N#Cc1ccc(OC2CCNC2)c(-c2cc(C(N)=O)c(NC(N)=O)s2)c1 (racemic)	22	1.6	1653	39	–	–
NC(=O)Nc1sc(-c2ccc(OC3CCNC3)cc2)cc1C(N)=O (racemic)	8.5	1.4	1493	73	–	–
CC(C)(C)NCC(O)c1ccc(O)c(CO)c1 (centres undefined) [ALBUTEROL]	270	15	58	11	–	–
N=C(N)NC(=O)c1nc(Cl)c(N)nc1N [AMILORIDE]	1660	74	1430	76	–	–
CN/C(=N/CCSCc1nc[nH]c1C)NC#N [CIMETIDINE]	270	15	65	6.5	–	–
CN(C)C(=N)N=C(N)N [METFORMIN]	110	–	5.4	–	–	–
CC[N+](C)(CC)CCOC(=O)C(O)(c1ccccc1)C1CCCCC1 (centres undefined) [OXYPHENONIUM]	230	14	640	25	–	–
[H]/N=C(/N)N/C(=N/[H])NCCc1ccccc1 [PHENFORMIN]	450	> 35	570	> 39	–	–
CCC(NC(C)C)C(O)c1ccc(O)c2[nH]c(=O)ccc12 (centres undefined) [PROCATEROL]	14	1.9	140	11	–	–
CNC(=C[N+](=O)[O-])NCCSCc1ccc(CN(C)C)o1 [RANITIDINE]	22	1.6	600	18	–	–
C[N+]1(C)[C@@H]2C[C@@H](OC(=O)C(O)(c3cccs3)c3cccs3)C[C@H]1[C@@H]1O[C@@H]12 [TIOTROPIUM]	460	39	820	75	–	–
O=C(NCCNCC(O)COc1ccc(O)cc1)N1CCOCC1 (centres undefined) [XAMOTEROL]	5.2	1.6	230	43	–	–
Solute carrier family 22 member 2 (Homo sapiens) (protein) MPTTVDDVLEHGGEFHFFQKQMFFLLALLSATFAPIYVGIVFLGFTPDHRCRSPGVAELSLRCGWSPAEELNYTVPGPGPAGEASPRQCRRYEVDWNQSTFDCVDPLASLDTNRSRLPLGPCRDGWVYETPGSSIVTEFNLVCANSWMLDLFQSSVNVGFFIGSMSIGYIADRFGRKLCLLTTVLINAAAGVLMAISPTYTWMLIFRLIQGLVSKAGWLIGYILITEFVGRRYRRTVGIFYQVAYTVGLLVLAGVAYALPHWRWLQFTVSLPNFFFLLYYWCIPESPRWLISQNKNAEAMRIIKHIAKKNGKSLPASLQRLRLEEETGKKLNPSFLDLVRTPQIRKHTMILMYNWFTSSVLYQGLIMHMGLAGDNIYLDFFYSALVEFPAAFMIILTIDRIGRRYPWAASNMVAGAACLASVFIPGDLQWLKIIISCLGRMGITMAYEIVCLVNAELYPTFIRNLGVHICSSMCDIGGIITPFLVYRLTNIWLELPLMVFGVLGLVAGGLVLLLPETKGKALPETIEEAENMQRPRKNKEKMIYLQVQKLDIPLN	–	–	–	–	60	–
Solute carrier family 22 member 1 (Homo sapiens) (protein) MPTVDDILEQVGESGWFQKQAFLILCLLSAAFAPICVGIVFLGFTPDHHCQSPGVAELSQRCGWSPAEELNYTVPGLGPAGEAFLGQCRRYEVDWNQSALSCVDPLASLATNRSHLPLGPCQDGWVYDTPGSSIVTEFNLVCADSWKLDLFQSCLNAGFLFGSLGVGYFADRFGRKLCLLGTVLVNAVSGVLMAFSPNYMSMLLFRLLQGLVSKGNWMAGYTLITEFVGSGSRRTVAIMYQMAFTVGLVALTGLAYALPHWRWLQLAVSLPTFLFLLYYWCVPESPRWLLSQKRNTEAIKIMDHIAQKNGKLPPADLKMLSLEEDVTEKLSPSFADLFRTPRLRKRTFILMYLWFTDSVLYQGLILHMGATSGNLYLDFLYSALVEIPGAFIALITIDRVGRIYPMAMSNLLAGAACLVMIFISPDLHWLNIIIMCVGRMGITIAIQMICLVNAELYPTFVRNLGVMVCSSLCDIGGIITPFIVFRLREVWQALPLILFAVLGLLAAGVTLLLPETKGVALPETMKDAENLGRKAKPKENTIYLKVQTSEPSGT	–	–	–	–	–	140
